Measured values taken from patent US5811445A, “Method of preventing abnormal stimulation of AT1 and AT2 receptors” (Roussel Uclaf, priority 1994, dated 1998).
Like-named read-outs stand apart in the source and are kept apart here.

Legend:
[1] = target: T1, AT1 receptor of angiotensin II (Rattus norvegicus, UniProt P25095); assay: Test on the AT1 receptor of angiotensin II (displacement of 125I angiotensin II, rat liver membranes); format: binding
T1 construct: A fresh membrane preparation obtained from rat's liver is used; from tissue; host or cells: rat liver membranes
T1 sequence (P25095 1-359): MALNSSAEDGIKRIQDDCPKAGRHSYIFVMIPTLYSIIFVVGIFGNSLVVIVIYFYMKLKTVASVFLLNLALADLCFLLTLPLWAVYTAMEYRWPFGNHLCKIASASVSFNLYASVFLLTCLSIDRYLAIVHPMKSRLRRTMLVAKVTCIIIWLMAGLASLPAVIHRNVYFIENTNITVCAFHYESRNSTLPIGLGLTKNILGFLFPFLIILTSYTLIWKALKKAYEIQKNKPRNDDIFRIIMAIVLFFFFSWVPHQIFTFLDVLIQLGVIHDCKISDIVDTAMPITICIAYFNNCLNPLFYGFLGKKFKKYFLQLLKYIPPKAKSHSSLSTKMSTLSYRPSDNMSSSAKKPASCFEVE
Protocol: 1 - Test on the AT1 -receptor of angiotensin II
A fresh membrane preparation obtained from rat's liver is used. The tissue is ground up in a polytron in a 50 mM Tris buffer pH 7.4, the grinding is followed by 3 centrifugations at 30,000 g for 15 minutes with intermediate take up of the pellets in the Tris buffer pH 7.4.
(§1) (The product is first tested with 3×10^-5 M three times). When the tested product displaces more than 50% of the radioactivity specifically bound to the receptor, it is tested again according to a range of 7 concentrations in order to determine the concentration which inhibits by 50% the radioactivity specifically bound to the receptor. In this way the 50% inhibitory concentration is determined).
(§2) After incubation at 25° C. for 150 minutes, placing in a water-bath at 0° C. for 5 minutes, filtration under vacuum, and rinsing with Tris buffer pH 7.4, the radioactivity is counted in the presence of a scintillating solid.

[2] = target: T2, AT2 receptor of angiotensin II (Oryctolagus cuniculus, UniProt G1T351); assay: Test on the AT2 receptor of angiotensin II (displacement of 125I angiotensin II, rabbit uterus membranes); format: binding
T2 construct: A fresh membrane preparation obtained from rabbit's uterus is used; from tissue; host or cells: uterus membranes of estradiol-treated rabbits
T2 sequence (G1T351 1-363): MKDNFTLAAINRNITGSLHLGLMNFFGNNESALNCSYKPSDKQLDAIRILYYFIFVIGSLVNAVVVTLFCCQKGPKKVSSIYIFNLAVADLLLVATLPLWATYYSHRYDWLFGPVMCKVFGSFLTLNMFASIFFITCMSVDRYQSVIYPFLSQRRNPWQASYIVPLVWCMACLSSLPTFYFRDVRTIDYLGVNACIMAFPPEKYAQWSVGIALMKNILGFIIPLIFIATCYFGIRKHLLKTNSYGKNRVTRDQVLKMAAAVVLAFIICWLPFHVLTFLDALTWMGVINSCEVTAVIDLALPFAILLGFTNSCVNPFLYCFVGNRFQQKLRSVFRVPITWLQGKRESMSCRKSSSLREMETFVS
Protocol: 2) Test on the AT2 receptor of angiotensin II
The tissue is ground up in a polytron in a 50 mM Tris buffer pH 7.4, and the grinding is followed by 3 centrifugations at 30,000 g for 15 minutes, with intermediate take up of the pellets in the Tris buffer pH 7.4.
The homogenate obtained is preincubated for 20 minutes at 25° C. in the presence of 10 mM dithiothreitol, then brought back to 0°-4° C.
as §1, with “The” for “(The”, “at 3.10^-5” for “with 3×10^-5”, “times.” for “times).”, “determined.” for “determined).”
as §2

[3] = test system: angiotensin II (pressure effects); assay: Test for antagonistic activity of angiotensin II in the demedullated rat; format: in vivo, Male Sprague-Dawley rats; settings: IV, inhibition of pressure effects of angiotensin II (0.75 micrograms/kg), read-out: ID50 IV
Protocol: 3 - Test for antagonistic activity of angiotensin II in the demedullated rat
Male Sprague-Dawley rats (250 to 350 g) are anaesthetized by an intraperitoneal injection with sodium pentobarbital (60 mg/kg). The diastolic arterial pressure is recorded by means of a heparin catheter (PE50) introduced into the left carotid of the animal, and connected to a pressure processor (Gould, Pressure Processor) via a Gould pressure sensor.
A catheter is introduced into the right jugular vein of the animal in order to allow injection of the molecules being studied.
The animal is placed under assisted respiration. A bilateral section of the vagus nerves is carried out. The rat is then demedullated.
After a sufficient stabilization period, study of the antagonism of the molecules vis-a-vis angiotensin II (Hypertensin, CIBA) is carried out in the following manner:
1 - Three consecutive injections of angiotensin II (0.75 micrograms/kg) 15 minutes apart allow a reproducible and stable pressure response to be obtained.
2 - While maintaining a periodicity of 15 minutes for the administration of angiotensin II, the molecules (0.01 to 10 mg/kg) are injected 5 minutes before the angiotensin II.
The pressure effects of angiotensin II in the presence of the antagonist are expressed as a percentage of the pressure effects of angiotensin II administered alone. The 50% inhibitory dose (ID50) of the effect studied is thus determined.
Each animal is considered as its own control.

[4] = test system: angiotensin II (pressure effects); assay: as above; format: in vivo, Male Sprague-Dawley rats; settings: PO, inhibition of pressure effects of angiotensin II (0.75 micrograms/kg), read-out: ID50 PO
[5] = rat liver membrane, 125I angiotensin II, 25° C., 150 minutes, read-out: AT1 Receptor IC50
[6] = rabbit uterus membrane (estradiol pre-treated), 125I angiotensin II, 25° C., 150 minutes, read-out: AT2 Receptor IC50
[7] = products P1 to P13, expressed in nM, read-out: On AT1 receptor IC50
[8] = products P1 to P13, expressed in nM, read-out: On AT2 receptor IC50

Row | SMILES | IC50 [1, 5] [nM] | IC50 [2, 6] [nM] | ED50 [3] [mg/kg] | ED50 [4] [mg/kg] | IC50 [1, 7] [nM] | IC50 [2, 8] [nM]
1 | CCCCc1nc(SC)c(C(C)(O)C(=O)O)n1Cc1ccc(-c2ccccc2S(=O)(=O)NC(=O)OCc2ccccc2)cc1 (stereo not drawn) [Example 7, 2-butyl alpha-hydroxy alpha-methyl 4-(methylthio) 1-[(2'-((((phenylmethoxy)carbonyl)amino)sulphonyl) (1,1'-biphenyl) 4-yl)methyl] 1H-imidazole 5-acetic acid] | 0.7 | 5.2 | 0.6 |  |  | 
2 | CCCc1nc(SC)c(C(=O)O)n1Cc1ccc(-c2ccccc2S(=O)(=O)NC(=O)NCC2CCCCC2)cc1 [Example 23, sodium 1-((2'-(((((cyclohexylmethyl)amino)carbonyl)amino)sulphonyl) (1,1'-biphenyl) 4-yl)methyl] 4-(methylthio) 2-propyl 1H-imidazole 5-carboxylate] | 0.2 | 2 | 0.3 | 1.54 |  | 
3 | CCCc1nc(SC)c(C(=O)O)n1Cc1ccc(-c2ccccc2S(=O)(=O)NC(=O)NCc2ccccc2)cc1 [Example 25, 4-(methylthio) 1-[(2'-(((((phenylmethyl)amino)carbonyl)amino)sulphonyl) (1,1'-biphenyl) 4-yl)methyl] 2-propyl 1H-imidazole 5-carboxylic acid] | 0.2 | 5.9 | 0.22 | 1.45 |  | 
4 | CCCCc1nc(SC)c(C(=O)O)n1Cc1ccc(-c2ccccc2S(=O)(=O)NC(=O)C(c2ccccc2)c2ccccc2)cc1 [Example 30, 2-butyl 1-[(2'-(((diphenylacetyl)amino)sulphonyl) (1,1'-biphenyl) 4-yl)methyl] 4-(methylthio) 1H-imidazole 5-carboxylic acid] |  |  | 0.93 |  |  | 
5 | CCCCC(O)(C(=O)O)c1c(SC)nc(CCC)n1Cc1ccc(-c2ccccc2S(=O)(=O)NC(=O)NCc2ccccc2)cc1 (stereo not drawn) [Example 32, sodium alpha-butyl alpha-hydroxy 4-(methylthio) 1-[(2'-(((((phenylmethyl)amino)carbonyl)amino)sulphonyl) (1,1'-biphenyl) 4-yl)methyl] 2-propyl 1H-imidazole 5-acetate] | 0.5 | 0.8 | 0.46 |  |  | 
6 | CCCCc1nc(SC)c(C(N)=O)n1Cc1ccc(-c2ccccc2S(=O)(=O)NC(=O)NCCC)cc1 [Example 35, 2-butyl 4-(methylthio) 1-((2'-((((propylamino)carbonyl)amino)sulphonyl) (1,1'-biphenyl) 4-yl)methyl) 1H-imidazole 5-carboxamide] |  |  | 0.05 |  |  | 
7 | CCCc1nc(SC(F)F)c(C(=O)O)n1Cc1ccc(-c2ccccc2S(=O)(=O)NC(=O)NCC2CCCCC2)cc1 [Example 45, 1-((2'-(((((cyclohexylmethyl)amino)carbonyl)amino)sulphonyl) (1,1'-biphenyl 4-yl)methyl) 4-(difluoromethyl)thio) 2-propyl 1H-imidazole 5-carboxylic acid] | 0.07 | 1.7 | 0.22 | 1.1 |  | 
8 | CCCc1nc(SC(F)F)c(C(=O)O)n1Cc1ccc(-c2ccccc2S(=O)(=O)NC(=O)NCc2ccccc2)cc1 [Example 46, 4-((difluoromethyl)thio) 1-((2'-(((((phenylmethyl)amino)carbonyl)amino)sulphonyl) (1,1'-biphenyl) 4-yl)methyl) 2-propyl 1H-imidazole 5-carboxylic acid] | 0.11 | 0.26 | 0.26 | 2 |  | 
9 | CCCc1nc(SC(F)F)c(C(=O)O)n1Cc1ccc(-c2ccccc2S(=O)(=O)NC(=O)NCCc2cccs2)cc1 [Example 47] | 0.03 |  | 0.33 | 3 |  | 
10 | CCCc1nc(SC(F)F)c(C(=O)O)n1Cc1ccc(-c2ccccc2S(=O)(=O)NC(=O)NCCc2ccccc2)cc1 [Example 48] |  |  | 0.64 |  |  | 
11 | CCCc1nc(SC(F)F)c(C(=O)O)n1Cc1ccc(-c2ccccc2S(=O)(=O)NC(=O)NCc2cccs2)cc1 [Example 50, 4-((difluoromethyl)thio) 2-propyl 1-((2'-(((((2-thienylmethyl)amino)carbonyl)amino)sulphonyl) (1,1'-biphenyl) 4-yl)methyl) 1H-imidazole 5-carboxylic acid] | 0.06 | 7.4 | 0.13 |  |  | 
12 | CCCc1nc(SC)c(C(=O)O)n1Cc1ccc(-c2ccccc2S(=O)(=O)NC(=O)Nc2ccccc2)cc1 [Example 62, 4-(methylthio) 1-((2'-((((phenylamino)carbonyl)amino)sulphonyl) (1,1'-biphenyl) 4-yl)methyl) 2-propyl 1H-imidazole 5-carboxylic acid] |  |  | 0.52 |  |  | 
13 | CCCCc1nc(SC)c(C(O)CC(=O)O)n1Cc1ccc(-c2ccccc2S(=O)(=O)NC(=O)NCc2ccccc2)cc1 (stereo not drawn) [Example 65, 2-butyl beta-hydroxy 4-(methylthio) 1-((2'-(((((phenylmethyl)amino)carbonyl)amino)sulphonyl) (1,1'-biphenyl) 4-yl)methyl) 1H-imidazole 5-propionic acid] |  |  | 0.05 |  |  | 
14 | CCCCc1nc(SC)c(C(=O)O)n1Cc1ccc(-c2ccccc2S(=O)(=O)NC(=O)NCC2CCCCC2)cc1 [Example 75, 2-butyl 1-((2'-(((((cyclohexylmethyl)amino)carbonyl)amino)sulphonyl) (1,1'-biphenyl) 4-yl)methyl) 4-(methylthio) 1H-imidazole 5-carboxylic acid] | 0.05 |  | 0.35 |  | 0.23 | 17
15 | CCCCc1nc(SC)c(C(=O)O)n1Cc1ccc(-c2ccccc2S(=O)(=O)NC(=O)OCc2ccccc2)cc1 [Example P12, 2-butyl 4-(methylthio) 1-[(2'-(((phenylmethoxycarbonyl)amino)sulphonyl) (1,1'-biphenyl) 4-yl)methyl] 1H-imidazole 5-carboxylic acid] |  |  |  |  | 0.8 | 54
16 | CCCCc1nc(OC)c(C=O)n1Cc1ccc(-c2ccccc2S(=O)(=O)NC(=O)OCc2ccccc2)cc1 [Example P13, (phenylmethyl) ((4'-((2-butyl 5-formyl 4-methoxy 1H-imidazol 1-yl)methyl) (1,1'-biphenyl) 2-yl)sulphonyl) carbamate] |  |  |  |  | 5.9 | 63
